According to ChEMBL document CHEMBL1201862, “PubChem BioAssay data set” (2004):
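Interpolation was linear, between the two tested concentrations surrounding the appropriate level; five concentrations were tested over 48 hours in 96-well plates. GI50 is the concentration that inhibits growth by half.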 Calls of active or inactive are those of the source. No stated cut-off is given here; in the data, active = GI50 up to about 1.1 µM and inactive = higher.

Experiments:
Experiment in all cases: growth of human tumour cells (NCI), 48 h
[1] = test system: 786-0
[2] = test system: A498
[3] = test system: A549
[4] = test system: ACHN
[5] = test system: BT-549
[6] = test system: COLO 205
[7] = test system: EKVX
[8] = test system: HCC 2998
[9] = test system: HCT-116
[10] = test system: HCT-15
[11] = test system: HL-60
[12] = test system: HOP-62
[13] = test system: HT-29
[14] = test system: Hs-578T
[15] = test system: IGROV-1
[16] = test system: K562
[17] = test system: KM12
[18] = test system: LOX IMVI
[19] = test system: M14
[20] = test system: MCF7
[21] = test system: MDA-MB-231
[22] = test system: MDA-MB-435
[23] = test system: MDA-N
[24] = test system: MOLT-4
[25] = test system: Malme-3M
[26] = test system: NCI-H23
[27] = test system: NCI-H460
[28] = test system: NCI-H522
[29] = test system: NCI/ADR-RES
[30] = test system: OVCAR-3
[31] = test system: OVCAR-5
[32] = test system: OVCAR-8
[33] = test system: PC-3
[34] = test system: RPMI-8226
[35] = test system: SF-295
[36] = test system: SF-539
[37] = test system: SK-MEL-28
[38] = test system: SK-MEL-2
[39] = test system: SK-MEL-5
[40] = test system: SN12C
[41] = test system: SNB-19
[42] = test system: SW-620
[43] = test system: T47D
[44] = test system: TK-10
[45] = test system: U-251
[46] = test system: UACC-257
[47] = test system: UACC-62
[48] = test system: UO-31
[49] = test system: CAKI-1
[50] = test system: CCRF-CEM
[51] = test system: DU-145
[52] = test system: HOP-92
[53] = test system: NCI-H226
[54] = test system: OVCAR-4
[55] = test system: SF-268
[56] = test system: SK-OV-3
[57] = test system: SNB-75
[58] = test system: SR

O=C1C(NCCc2ccc(O)c([N+](=O)[O-])c2)=CC(=O)c2[nH]cnc21
GI50 [1]: 47.2 µM (inactive) | GI50 [2]: 32.1 µM (inactive) | GI50 [3]: 28.6 µM (inactive) | GI50 [4]: 44.3 µM (inactive) | GI50 [5]: > 10 µM (inactive) | GI50 [6]: 43.8 µM (inactive) | GI50 [7]: 27.4 µM (inactive) | GI50 [8]: 51.5 µM (inactive) | GI50 [9]: 24.7 µM (inactive) | GI50 [10]: 39.7 µM | GI50 [11]: 21.2 µM (inactive) | GI50 [12]: 68.4 µM (inactive) | GI50 [13]: 34.6 µM (inactive) | GI50 [14]: 83.9 µM (inactive) | GI50 [15]: 29.9 µM (inactive) | GI50 [16]: 18.4 µM (inactive) | GI50 [17]: 42.9 µM (inactive) | GI50 [18]: 15.8 µM (inactive) | GI50 [19]: 15 µM (inactive) | GI50 [20]: 32 µM (inactive) | GI50 [21]: 22.7 µM (inactive) | GI50 [22]: 18.6 µM (inactive) | GI50 [23]: 16.3 µM (inactive) | GI50 [24]: 19.8 µM (inactive) | GI50 [25]: 5.79 µM (inactive) | GI50 [26]: 17.1 µM (inactive) | GI50 [27]: 24.8 µM (inactive) | GI50 [28]: 18.6 µM (inactive) | GI50 [29]: > 100 µM (inactive) | GI50 [30]: 15.2 µM (inactive) | GI50 [31]: 33.3 µM (inactive) | GI50 [32]: 25 µM (inactive) | GI50 [33]: 67 µM (inactive) | GI50 [34]: 32.7 µM (inactive) | GI50 [35]: 10.5 µM (inactive) | GI50 [36]: 38 µM (inactive) | GI50 [37]: 14.3 µM (inactive) | GI50 [38]: 16 µM (inactive) | GI50 [39]: 16.2 µM (inactive) | GI50 [40]: 26.2 µM (inactive) | GI50 [41]: 89.5 µM (inactive) | GI50 [42]: 44.6 µM (inactive) | GI50 [43]: 18.5 µM (inactive) | GI50 [44]: 36.1 µM (inactive) | GI50 [45]: 32.3 µM (inactive) | GI50 [46]: 18.3 µM (inactive) | GI50 [47]: 20.8 µM (inactive) | GI50 [48]: 76.9 µM (inactive)

COc1cc2nc(-c3cccs3)nc(Nc3ccccc3C(=O)NN)c2cc1OC
GI50 [1]: 95.7 µM (inactive) | GI50 [2]: > 100 µM (inactive) | GI50 [3]: > 100 µM (inactive) | GI50 [4]: > 100 µM (inactive) | GI50 [5]: > 100 µM (inactive) | GI50 [49]: > 100 µM (inactive) | GI50 [50]: > 100 µM (inactive) | GI50 [6]: 67.3 µM (inactive) | GI50 [51]: > 100 µM (inactive) | GI50 [7]: > 100 µM (inactive) | GI50 [8]: > 100 µM (inactive) | GI50 [9]: > 100 µM (inactive) | GI50 [10]: > 100 µM | GI50 [11]: 44.9 µM (inactive) | GI50 [12]: > 100 µM (inactive) | GI50 [52]: 21.6 µM (inactive) | GI50 [13]: > 100 µM (inactive) | GI50 [14]: > 100 µM (inactive) | GI50 [15]: > 100 µM (inactive) | GI50 [16]: 97.5 µM (inactive) | GI50 [17]: > 100 µM (inactive) | GI50 [18]: 51.5 µM (inactive) | GI50 [19]: > 100 µM (inactive) | GI50 [20]: > 100 µM (inactive) | GI50 [21]: > 100 µM (inactive) | GI50 [22]: 95.7 µM (inactive) | GI50 [24]: > 100 µM (inactive) | GI50 [25]: > 100 µM (inactive) | GI50 [53]: > 100 µM (inactive) | GI50 [26]: > 100 µM (inactive) | GI50 [27]: > 100 µM (inactive) | GI50 [28]: > 100 µM (inactive) | GI50 [29]: > 100 µM (inactive) | GI50 [30]: 57.5 µM (inactive) | GI50 [54]: 27.8 µM (inactive) | GI50 [31]: > 100 µM (inactive) | GI50 [32]: > 100 µM (inactive) | GI50 [33]: > 100 µM (inactive) | GI50 [34]: > 100 µM (inactive) | GI50 [55]: > 100 µM (inactive) | GI50 [35]: 66.8 µM (inactive) | GI50 [36]: > 100 µM (inactive) | GI50 [37]: 99.8 µM (inactive) | GI50 [38]: > 100 µM (inactive) | GI50 [39]: > 100 µM (inactive) | GI50 [56]: > 100 µM (inactive) | GI50 [40]: > 100 µM (inactive) | GI50 [41]: > 100 µM (inactive) | GI50 [57]: > 100 µM (inactive) | GI50 [58]: 23.6 µM (inactive) | GI50 [42]: > 100 µM (inactive) | GI50 [43]: > 100 µM (inactive) | GI50 [44]: > 100 µM (inactive) | GI50 [45]: 96.2 µM (inactive) | GI50 [46]: > 100 µM (inactive) | GI50 [47]: > 100 µM (inactive) | GI50 [48]: > 100 µM (inactive)
